According to the supplement of paper PMC10307832:

How the values were obtained:
Experiment in all cases: relative viability (nuclei count vs DMSO), 5 days (fraction); higher = more cells survive
Motesanib + Pictilisib = compound: CC1(C)CNc2cc(NC(=O)c3cccnc3NCc3ccncc3)ccc21 [Motesanib] + CS(=O)(=O)N1CCN(Cc2cc3nc(-c4cccc5[nH]ncc45)nc(N4CCOCC4)c3s2)CC1 [Pictilisib] (partner 1 µM)
Method in brief: (§1)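 The day after seeding in 1536-well plates, lung cancer cell lines were treated by pin tool with a single drug, or with a fixed anchor-drug dose together with five library-drug doses (not always all listed) in √10 steps. After 5 days, a combined fix-and-stain solution (final 0.05% Triton X-100, 1% formaldehyde, 1 ug/ml Hoechst) was added. Nuclei counted on 4× images gave relative viability as treated counts over vehicle counts, reported as the median of duplicate plates.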

Motesanib + OSI-027 = compound: CC1(C)CNc2cc(NC(=O)c3cccnc3NCc3ccncc3)ccc21 [Motesanib] + COc1cccc2cc(-c3nc([C@H]4CC[C@H](C(=O)O)CC4)n4ncnc(N)c34)[nH]c12 [OSI-027] (partner 0.5 µM)
Method in brief: as §1

Motesanib + Tozasertib = compound: CC1(C)CNc2cc(NC(=O)c3cccnc3NCc3ccncc3)ccc21 [Motesanib] + Cc1cc(Nc2cc(N3CCN(C)CC3)nc(Sc3ccc(NC(=O)C4CC4)cc3)n2)n[nH]1 [Tozasertib] (partner 0.1 µM)
Method in brief: as §1

Motesanib + Linsitinib = compound: CC1(C)CNc2cc(NC(=O)c3cccnc3NCc3ccncc3)ccc21 [Motesanib] + C[C@]1(O)C[C@@H](c2nc(-c3ccc4ccc(-c5ccccc5)nc4c3)c3c(N)nccn32)C1 [Linsitinib] (partner 1 µM)
Method in brief: as §1

Cell Line	relative viability (Motesanib + Pictilisib; first compound 0.01 µM)	relative viability (Motesanib + Pictilisib; first compound 0.03162 µM)	relative viability (Motesanib + Pictilisib; first compound 0.1 µM)	relative viability (Motesanib + Pictilisib; first compound 0.3162 µM)	relative viability (Motesanib + Pictilisib; first compound 1 µM)	relative viability (Motesanib + OSI-027; first compound 0.01 µM)	relative viability (Motesanib + OSI-027; first compound 0.03162 µM)	relative viability (Motesanib + OSI-027; first compound 0.1 µM)	relative viability (Motesanib + OSI-027; first compound 0.3162 µM)	relative viability (Motesanib + OSI-027; first compound 1 µM)	relative viability (Motesanib + Tozasertib; first compound 0.01 µM)	relative viability (Motesanib + Tozasertib; first compound 0.03162 µM)	relative viability (Motesanib + Tozasertib; first compound 0.1 µM)	relative viability (Motesanib + Tozasertib; first compound 0.3162 µM)	relative viability (Motesanib + Tozasertib; first compound 1 µM)	relative viability (Motesanib + Linsitinib; first compound 0.01 µM)	relative viability (Motesanib + Linsitinib; first compound 0.03162 µM)	relative viability (Motesanib + Linsitinib; first compound 0.1 µM)	relative viability (Motesanib + Linsitinib; first compound 0.3162 µM)	relative viability (Motesanib + Linsitinib; first compound 1 µM)
201T	0.671	0.688	0.68	0.679	0.71	0.683	0.726	0.779	0.506	0.69	0.888	0.833	1.05	0.923	0.97	1	1.09	1.03	1.05	1.02
A549	0.515	0.478	0.504	0.574	0.57	–	–	–	–	–	–	–	–	–	–	0.532	0.633	0.571	0.624	0.773
A-427	0.43	0.684	0.495	0.681	0.789	0.4	0.459	0.485	0.545	0.5	0.185	0.191	0.24	0.236	0.173	1.06	1.11	1.07	1.22	1.22
ABC-1	0.81	0.962	0.715	0.707	0.76	0.438	0.521	0.407	0.332	0.604	0.174	0.188	0.226	0.197	0.149	1.01	0.891	0.752	0.587	0.774
BEN	0.517	0.618	0.624	0.579	0.715	0.281	0.277	0.272	0.291	0.31	0.505	0.529	0.627	0.547	0.543	0.932	0.842	1.08	0.886	1.05
CAL-12T	–	–	0.358	0.403	0.434	0.628	0.731	0.685	0.555	0.677	0.348	0.254	0.351	0.384	0.371	0.81	0.801	0.876	0.882	0.822
COR-L23	0.701	0.864	0.732	0.836	0.854	0.788	0.721	0.874	0.753	0.806	0.238	0.141	0.456	0.193	0.191	0.943	0.862	0.92	1.09	0.905
COR-L 105	0.489	0.439	0.395	0.49	0.385	0.768	0.7	0.717	0.689	0.626	0.341	0.33	0.327	0.381	0.345	0.872	1.22	1.04	0.889	1.17
Calu-6	0.878	0.727	0.944	0.867	0.84	–	–	–	–	–	–	–	–	–	–	0.971	0.932	0.961	0.955	1.08
ChaGo-K-1	–	0.535	0.532	0.638	0.757	0.637	0.474	0.495	0.597	0.563	0.236	0.237	0.219	0.252	0.22	–	–	–	–	–
EBC-1	0.503	0.366	0.302	0.385	0.335	–	–	–	–	–	–	–	–	–	–	0.829	0.941	0.978	0.959	0.937
EKVX	0.483	0.445	0.462	0.472	0.506	0.684	0.655	0.788	0.732	0.674	0.368	0.381	0.356	0.432	0.422	0.939	0.98	1.06	1.12	1.07
EMC-BAC-2	0.582	0.564	0.537	0.542	0.6	0.398	0.341	0.36	0.412	0.378	0.286	0.238	0.351	0.309	0.281	0.828	0.805	0.827	0.817	0.86
EPLC-272H	0.296	0.176	0.267	0.317	0.309	0.236	0.311	–	0.263	0.244	0.293	0.234	–	0.253	0.253	1.23	1.26	1.26	1.24	1.38
H3255	0.473	0.487	0.491	0.488	0.427	0.608	0.601	0.603	0.558	0.635	0.549	0.671	0.742	0.513	0.608	0.949	1.02	0.913	1.06	0.871
HARA	0.372	0.366	0.405	0.389	0.461	0.439	0.724	0.527	0.554	0.557	0.117	0.0896	0.097	0.133	0.0863	0.967	0.909	1.02	1.09	1.14
HCC-15	0.786	0.729	0.653	0.848	0.747	0.693	0.65	0.64	0.817	0.64	0.454	0.278	0.372	0.451	0.392	0.928	0.801	0.922	0.992	0.926
HCC-44	0.672	0.611	0.891	0.673	0.474	0.552	0.431	0.633	0.633	0.544	0.944	0.721	0.941	0.998	0.974	0.7	0.653	0.694	0.696	0.6
HCC-78	0.182	0.198	0.174	0.207	0.182	0.343	0.348	0.405	0.345	0.297	0.486	0.373	0.476	0.355	0.403	0.498	0.481	0.541	0.705	0.584
HCC-366	0.145	0.149	0.139	0.139	0.137	0.964	0.959	0.863	0.881	1.03	0.124	0.115	0.126	0.139	0.0819	0.639	0.589	0.656	0.666	0.79

Cell Line	relative viability (Motesanib + Pictilisib; first compound 0.01 µM)	relative viability (Motesanib + Pictilisib; first compound 0.03162 µM)	relative viability (Motesanib + Pictilisib; first compound 0.1 µM)	relative viability (Motesanib + Pictilisib; first compound 0.3162 µM)	relative viability (Motesanib + Pictilisib; first compound 1 µM)	relative viability (Motesanib + OSI-027; first compound 0.01 µM)	relative viability (Motesanib + OSI-027; first compound 0.03162 µM)	relative viability (Motesanib + OSI-027; first compound 0.1 µM)	relative viability (Motesanib + OSI-027; first compound 0.3162 µM)	relative viability (Motesanib + OSI-027; first compound 1 µM)	relative viability (Motesanib + Tozasertib; first compound 0.01 µM)	relative viability (Motesanib + Tozasertib; first compound 0.03162 µM)	relative viability (Motesanib + Tozasertib; first compound 0.1 µM)	relative viability (Motesanib + Tozasertib; first compound 0.3162 µM)	relative viability (Motesanib + Tozasertib; first compound 1 µM)	relative viability (Motesanib + Linsitinib; first compound 0.01 µM)	relative viability (Motesanib + Linsitinib; first compound 0.03162 µM)	relative viability (Motesanib + Linsitinib; first compound 0.1 µM)	relative viability (Motesanib + Linsitinib; first compound 0.3162 µM)	relative viability (Motesanib + Linsitinib; first compound 1 µM)
HCC-827	1.12	1.13	0.866	1.01	1.04	0.669	0.809	0.749	0.761	0.755	0.405	0.425	0.464	0.48	0.431	0.983	0.916	1	1.05	0.951
HOP-62	0.651	0.843	0.507	1.08	1.01	0.843	0.912	0.839	0.92	0.815	0.369	0.306	0.412	0.388	0.395	0.732	0.956	0.806	1.05	1.03
IA-LM	0.38	0.346	0.351	0.318	0.519	–	–	–	–	–	–	–	–	–	–	0.514	0.627	0.594	0.482	0.46
LC-2-ad	0.449	0.593	0.479	0.568	0.421	0.927	0.948	0.872	0.803	0.716	0.447	0.362	0.439	0.476	0.45	0.828	0.834	0.858	0.881	0.766
LCLC-97TM1	0.224	0.204	0.15	0.235	0.18	0.519	0.56	0.465	0.58	0.537	0.2	0.178	0.257	0.279	0.17	0.171	0.164	0.2	0.182	0.2
LCLC-103H	–	0.613	0.542	0.639	0.709	0.471	0.467	0.465	0.429	0.466	0.489	0.341	0.47	0.442	0.551	–	1.1	1.12	1.09	1.02
LK-2	0.576	0.513	0.555	0.621	0.537	0.225	0.195	0.168	0.218	0.256	0.177	0.163	–	0.163	0.181	0.426	0.44	0.369	0.623	0.582
LOU-NH91	0.466	0.523	0.563	0.547	0.568	0.717	0.764	0.721	0.722	0.743	0.681	0.621	0.648	0.658	0.78	1.05	0.996	0.942	0.91	0.996
NCI-H522	–	–	–	–	–	0.741	0.585	0.417	0.659	0.732	0.629	0.546	0.611	0.566	0.595	–	–	–	–	–
NCI-H1299	0.59	0.828	0.825	0.845	0.845	–	–	–	–	–	–	–	–	–	–	0.989	0.966	1.02	0.977	1.07
NCI-H1563	0.65	0.645	0.68	0.64	0.678	0.754	0.799	0.797	0.752	0.704	–	–	–	–	–	1.26	1.19	1.21	1.14	1.21
NCI-H1623	–	–	–	–	–	0.454	0.475	0.475	0.389	0.409	0.414	0.426	0.457	0.425	0.475	–	–	–	–	–
NCI-H1648	–	–	–	–	–	0.275	0.283	0.268	0.275	0.295	0.307	0.367	0.281	0.528	0.345	–	–	–	–	–
NCI-H1650	0.592	–	0.516	0.495	0.517	0.747	0.688	0.725	0.562	0.586	0.467	0.381	0.438	0.491	0.439	–	–	–	–	–
NCI-H1703	0.21	0.219	0.195	0.215	0.214	–	–	–	–	–	–	–	–	–	–	0.814	0.656	0.497	0.306	0.162
NCI-H1792	0.296	0.231	0.294	0.297	0.309	–	0.65	0.723	0.824	0.651	–	–	–	–	–	0.569	0.492	0.625	0.561	0.492
NCI-H2170	0.278	0.347	0.294	0.331	0.344	0.686	0.687	0.748	0.718	0.775	0.64	0.679	0.709	0.832	0.659	–	–	–	–	–
NCI-H2342	–	–	–	–	–	0.555	0.654	0.672	0.505	0.637	0.493	0.496	0.438	0.562	0.583	–	–	–	–	–
SW 900	–	–	–	–	–	0.65	0.515	0.651	0.61	0.656	0.599	0.524	0.66	0.51	0.638	–	–	–	–	–
